Each structure is given as a SMILES string.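 All cell lines were grown in 96-well plates and treated with compound for 48 hours. Here, GI50 denotes the concentration required for 50% inhibition of growth.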 Calls of active or inactive are those of the source. Rule as the data show it: active = GI50 up to about 1.1 µM and inactive = higher. A value given as a limit tells only on which side of the number the result lay.

Test systems include Hs-578T; MDA-MB-435; MDA-MB-231; SNB-78; DLD-1; XF498; HOP-18; DMS-273.
Holding throughout (experiment): NCI-60 cell line screen, 48 h

For the compound `CC(C)CC(NC(=O)C(O)C(N)Cc1ccccc1)C(=O)O` (stereo not given), the GI50 in the experiment with Hs-578T, with MDA-MB-435 and with MDA-MB-231 was > 100 µM (inactive) each time.
As for `COc1ccc2c(c1)CCCc1c-2nc2ccccc2c1N`, the results for the GI50 with Hs-578T, with MDA-MB-435 and in the experiment with MDA-MB-231 were 17.8 µM (inactive), 12 µM (inactive) and 5.7 µM (inactive), respectively.
As for `O=C(O)c1nn(-c2ccccc2)nc1-c1nn(-c2ccccc2)nc1C(=O)O`, the GI50 in the experiment on Hs-578T, with MDA-MB-435 and with MDA-MB-231 was > 100 µM (inactive) throughout.
In the case of `Cc1c(CNc2ccc(C(=O)NC(CCCNC(=O)c3ccccc3C(=O)O)C(=O)O)cc2)cnc2nc(N)nc(N)c12` (stereo not given), the GI50 is 0.1 µM (active) in the experiment with Hs-578T, 0.000596 µM (active) with MDA-MB-435 and 3.23 µM (inactive) in the experiment on MDA-MB-231.
`S=C(NCc1ccccn1)N/N=C/c1ccccn1`: the GI50 with Hs-578T was 1.14 µM (inactive); with MDA-MB-435 it was 0.207 µM (active); in the experiment with MDA-MB-231, < 0.01 µM (active).
Take `COC(=O)c1ccc(S)c(S(=O)(=O)Nc2nc(N)n[nH]2)c1`: the GI50 with Hs-578T, in the experiment with MDA-MB-435 and in the experiment on MDA-MB-231 was > 100 µM (inactive) each time.
Regarding `O=S(=O)(OI(O)CC(F)(F)F)C(F)(F)F`, the GI50 with MDA-MB-435 and in the experiment on MDA-MB-231 was > 100 µM (inactive) throughout.
With `Cn1cc(C(=O)c2nccc3c2cnc2ccccc23)ccc1=O`, the GI50 in the experiment with Hs-578T, with MDA-MB-435 and with MDA-MB-231 was > 100 µM (inactive) each time.
In the case of `N=C(N)NS(=O)(=O)c1ccc(Nc2c3ccccc3nc3c(C(=O)NCCO)cccc23)cc1`, the GI50 is 0.209 µM (active) in the experiment with Hs-578T, 0.173 µM (active) with MDA-MB-435 and 0.207 µM (active) in the experiment with MDA-MB-231.
Taken in the same sequence, the figures for `Brc1sc(Br)c2c1[C@H](Br)C[C@@H]2Br` were 26.3 µM (inactive), 35.5 µM (inactive) and 31.1 µM (inactive).
Regarding `CC(=O)c1cc(I)c(O)c2ncccc12`, the GI50 in the experiment on Hs-578T was > 10 µM (inactive); in the experiment on MDA-MB-435, 4.09 µM (inactive); in the experiment with MDA-MB-231 it was 2.55 µM (inactive).
Taken in the same sequence, the figures for `CN(C)CCOc1ccc2[nH]c(C(=O)N3CC(CCl)c4c3cc(N)c3ccccc43)cc2c1` (stereo not given) were < 0.01 µM (active), < 0.01 µM (active) and < 0.01 µM (active).
Consider `CCOC(=O)CC(c1ccccc1)C(C)(C(=O)OCC)C(=O)OCC` (stereo not given), for which the GI50 with Hs-578T and with MDA-MB-231 was > 100 µM (inactive) in each case.
Regarding `Cc1oc(N)c(S(=O)(=O)c2cc3ccccc3[n+]([O-])c2N)c1C`, the GI50 in the experiment on Hs-578T, with MDA-MB-435 and in the experiment on MDA-MB-231 was > 100 µM (inactive) in each case.
Take `Cc1ccc(S(=O)(=O)N/N=C2/C3CCC(C3)C2c2ccccc2)cc1` (stereo not given): the GI50 in the experiment on Hs-578T and with MDA-MB-435 was > 100 µM (inactive) in each case.
On to `Cc1ccc(C(=O)N/N=C(\N=N\c2cccc([N+](=O)[O-])c2)c2ccc(N(CCC#N)CCC#N)cc2C)cc1`, for which the GI50 was 23.4 µM (inactive) in the experiment on Hs-578T, 18.1 µM (inactive) with MDA-MB-435 and 30.5 µM (inactive) in the experiment with MDA-MB-231.
For the compound `C/C(CC1C2CCCC1C2)=N\NC(N)=O` (stereo not given), the GI50 in the experiment with Hs-578T, in the experiment with MDA-MB-435 and in the experiment with MDA-MB-231 was > 100 µM (inactive) throughout.
On to `O=C(Cn1cc(Br)c(=O)[nH]c1=O)c1ccc(-c2ccccc2)cc1`, for which the GI50 was 29.6 µM (inactive) in the experiment with Hs-578T, > 16.8 µM (inactive) in the experiment on MDA-MB-435 and 12.2 µM (inactive) with MDA-MB-231.
Taken in the same sequence, the figures for `CN(C)CCCCN1c2ccccc2Sc2ccc(N=[N+]=[N-])cc21` were 5.22 µM (inactive), 2.06 µM (inactive) and 7.28 µM (inactive).
Taken in the same sequence, the figures for `NC(=O)CC(/N=C1\C(=O)OC(C(O)CO)\C1=N/C(CC(N)=O)C(=O)O)C(=O)O` (stereo not given) were > 100 µM (inactive), > 100 µM (inactive) and > 100 µM (inactive).
Take `O=C1NC(=O)/C(=C/c2ccc(S(=O)(=O)N/N=C/c3ccccc3)cc2)N1`: the GI50 in the experiment on Hs-578T, in the experiment on MDA-MB-435 and in the experiment with MDA-MB-231 was > 100 µM (inactive) each time.
Turning to `O=C(NCCNCCCNC(=O)c1cc(-c2ccccc2)nc2ccccc12)c1cccc(OCc2ccccc2)c1OCc1ccccc1`, the GI50 in the experiment with Hs-578T was 2.58 µM (inactive); in the experiment on MDA-MB-435 it was 1.68 µM (inactive); with MDA-MB-231, 1.71 µM (inactive).
As to `CN1C(=O)NC2(O)c3ccccc3C(=O)C12O` (stereo not given), the GI50 in the experiment on SNB-78, with DLD-1 and in the experiment on XF498 was > 100 µM (inactive) throughout.
In the case of `CCOP(=O)(CCCC(O)CNc1nc(N)nc(Cl)c1/N=N/c1ccc(Cl)cc1)OCC` (stereo not given), the GI50 in the experiment with Hs-578T was 4.85 µM (inactive); with MDA-MB-435 it was 5.85 µM (inactive); with MDA-MB-231, 2.59 µM (inactive).
Taken in the same sequence, the figures for `Cc1cc(-n2c(/C=C/c3ccc(Cl)cc3)nc3cc(Cl)ccc3c2=O)on1` were 8.32 µM (inactive), 14.2 µM (inactive) and 15.6 µM (inactive).
As to `CC1CN=C(N(C(=O)Nc2ccc(Cl)c(Cl)c2)c2ccccc2)S1` (stereo not given), the GI50 in the experiment with Hs-578T and in the experiment on MDA-MB-231 was > 100 µM (inactive) in each case.
Consider `CC(=O)NC(C)(C)C1CC=C(C)CC1` (stereo not given), for which the GI50 with Hs-578T, with MDA-MB-435 and in the experiment on MDA-MB-231 was > 100 µM (inactive) throughout.
Consider `COC1=CC(=O)c2ccccc2C1(CCC=C(C)C)C1=NC(C)(C)CO1` (stereo not given), for which the GI50 is 43.6 µM (inactive) with HOP-18, > 100 µM (inactive) with DLD-1 and 72.4 µM (inactive) with DMS-273.
As for `CC1(C)N=C(C2CCCN2C(=O)OCc2ccccc2)OC1=O` (stereo not given), the GI50 in the experiment on Hs-578T, in the experiment with MDA-MB-435 and in the experiment on MDA-MB-231 was > 100 µM (inactive) in each case.
On to `COC1CCC(OS(C)(=O)=O)CO1` (stereo not given), for which, in the experiment on SNB-78, the GI50 was > 100 µM (inactive).
On to `[N-]=[N+]=NCc1cccc(Nc2cc(=O)[nH]c(=O)[nH]2)c1`, for which the GI50 with Hs-578T and in the experiment with MDA-MB-435 was > 100 µM (inactive) throughout.
In the case of `Cn1c(=O)c2c(nc(N/N=C3/SCC(=O)N3Cc3ccccc3)n2C)n(C)c1=O`, the GI50 with Hs-578T is 60.8 µM (inactive); with MDA-MB-435 it was > 100 µM (inactive); in the experiment on MDA-MB-231, 60.7 µM (inactive).
`CCSc1ncnc2c(C3OC(CO)C(O)C3O)nsc12` (stereo not given): the GI50 with Hs-578T, in the experiment on MDA-MB-435 and in the experiment with MDA-MB-231 was > 100 µM (inactive) in each case.
`O=C(Cc1csc2[n+]1C(=O)/C(=C/c1ccc(Cl)cc1)S2)Nc1ccccc1`: the GI50 in the experiment with Hs-578T is 27.7 µM (inactive); in the experiment with MDA-MB-435 it was 25.3 µM (inactive); with MDA-MB-231 it was 14.8 µM (inactive).
`Fc1ccccc1C1SCc2nc3cc4ccccc4cc3n21` (stereo not given): the GI50 in the experiment with Hs-578T was 26.5 µM (inactive); in the experiment on MDA-MB-435, > 100 µM (inactive); in the experiment with MDA-MB-231, 13.2 µM (inactive).
`O=C(O)C1C(Br)(c2ccccc2)C1(Br)c1ccccc1` (stereo not given): the GI50 in the experiment on Hs-578T was 37.8 µM (inactive); in the experiment on MDA-MB-435, 41.2 µM (inactive); in the experiment with MDA-MB-231 it was 39.7 µM (inactive).
On to `Cn1nc(C(=O)N2CC(CCl)c3c2cc(N)c2ccccc32)cc1NC(=O)Nc1cc(C(=O)N2CC(CCl)c3c2cc(N)c2ccccc32)nn1C` (stereo not given), for which the GI50 with MDA-MB-435 was 0.219 µM (active); in the experiment with MDA-MB-231, 0.243 µM (active).
On to `COc1ccc(NC(=O)CC(=O)n2nc(C)c(/N=N/c3ccccc3C(=O)O)c2C)cc1`, for which the GI50 is 29.3 µM (inactive) in the experiment on SNB-78, > 100 µM (inactive) in the experiment on DLD-1, > 100 µM (inactive) with XF498 and > 100 µM (inactive) in the experiment with DMS-273.
As to `Cc1cc(NC2=NCCO2)c2c(c1C)CCCC2`, the GI50 is 10.8 µM (inactive) in the experiment with Hs-578T, 14.4 µM (inactive) in the experiment on MDA-MB-435 and 24 µM (inactive) in the experiment on MDA-MB-231.
In the case of `CC(=O)NC1=C(NCC(C)(C)C)C(=O)c2ccccc2C1=O`, the GI50 in the experiment on SNB-78 was 86.1 µM (inactive); in the experiment on DLD-1 it was 99.5 µM (inactive); in the experiment with XF498 it was 25.8 µM (inactive); in the experiment with DMS-273 it was > 100 µM (inactive).
Take `[N-]=[N+]=NCc1nc(N)c2c3c(sc2n1)CCCC3`: the GI50 was 2.72 µM (inactive) in the experiment on Hs-578T, 4.25 µM (inactive) in the experiment with MDA-MB-435 and 6.17 µM (inactive) with MDA-MB-231.
`CC(C)=CCC/C(C)=C/CC/C(C)=C/CC/C(=C/CC/C(C)=C\CC/C(C)=C/CC/C(C)=C/CC/C(C)=C/Cc1cc(O)ccc1O)CO`: the results for the GI50 with Hs-578T, in the experiment with MDA-MB-435 and in the experiment on MDA-MB-231 were 2.51 µM (inactive), 1.12 µM (active) and 27.3 µM (inactive), respectively.
Taken in the same sequence, the figures for `CN1COCc2c1ccc1cc3ccc4c(c3nc21)COCN4S(C)(=O)=O` were 95.9 µM (inactive), > 100 µM (inactive) and > 100 µM (inactive).
Take `CC(C)(C)C1=NO[C@H]2[C@@H](NC(=O)c3ccccc3)CC[C@@H]12`: the GI50 with SNB-78, in the experiment on DLD-1 and in the experiment on XF498 was > 100 µM (inactive) each time.
With `COc1cc(/C=C2\CCC(C)C3=C2N=c2s/c(=C/c4ccc(Cl)cc4)c(=O)n2C3c2cc(OC)c(OC)c(OC)c2)cc(OC)c1OC` (stereo not given), the GI50 in the experiment with Hs-578T, in the experiment on MDA-MB-435 and in the experiment on MDA-MB-231 was > 100 µM (inactive) each time.
On to `CC(C)C1=CC23CCC4C(C)(C(=O)O)CCCC4(C)C2CC1C1C(=O)N(c2ccc(Cc4ccc(N5C(=O)C6C7CC8C9(C)CCCC(C)(C(=O)O)C9CCC8(C=C7C(C)C)C6C5=O)cc4)cc2)C(=O)C13` (stereo not given), for which the figures for the GI50 with Hs-578T, with MDA-MB-435 and in the experiment with MDA-MB-231 were 10.7 µM (inactive), 3.55 µM (inactive) and 15.7 µM (inactive), respectively.
As for `O=C(O)Cc1cccc2c(=O)c3cccc([N+](=O)[O-])c3[nH]c12`, the results for the GI50 in the experiment with Hs-578T, in the experiment with MDA-MB-435 and with MDA-MB-231 were 36 µM (inactive), > 100 µM (inactive) and > 100 µM (inactive), respectively.
Consider `O=c1cccc2n1C[C@H]1CNC[C@H]2C1`, for which the GI50 with Hs-578T, with MDA-MB-435 and in the experiment with MDA-MB-231 was > 100 µM (inactive) throughout.
Consider `CCCCN=C(OC1C=CCCC1)SC` (stereo not given), for which the GI50 with MDA-MB-435 and with MDA-MB-231 was > 100 µM (inactive) in each case.
As to `COc1ccccc1-c1cc(O)c2c(C)cc(C)nc2n1`, the results for the GI50 with Hs-578T and in the experiment on MDA-MB-231 were > 100 µM (inactive) and 84.3 µM (inactive), respectively.
In the case of `CN(C)c1nc2sc3c(c2c(=O)o1)CCCC3`, the GI50 is 16.7 µM (inactive) with Hs-578T, 31.5 µM (inactive) in the experiment with MDA-MB-435 and 41.5 µM (inactive) in the experiment with MDA-MB-231.
